From the supplement of paper PMC12420376

Legend:
KURAMOCHI = test: drug sensitivity score (DSS2) on cancer cell count; higher = more sensitive; extreme values may be limits of the assay; settings: 72 h
In short: (§1)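 Screen quality was checked by Z', and a drug sensitivity score was derived in Breeze from logistic fits of the cancer cell counts. These counts were obtained by imaging at 10× (4 fields) after fixing and immunostaining for CK8/18 with Hoechst. Before that, ovarian cancer cells, alone or in 1:1 direct co-culture with lung or skin fibroblasts, had been treated for 72 h on 384-well plates acoustically pre-spotted with 528 approved and investigational compounds at 5 concentrations.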

OVCAR8 = test: as above; settings: 72 h
In short: as §1

[1] = co-cultured fibroblast: BJHTERT
[2] = co-cultured fibroblast: none (monoculture)

SMILES	drug sensitivity score (KURAMOCHI; [1]) [DSS]	drug sensitivity score (KURAMOCHI; co-cultured fibroblast: WI38) [DSS]	drug sensitivity score (KURAMOCHI; [2]) [DSS]	drug sensitivity score (OVCAR8; [1]) [DSS]	drug sensitivity score (OVCAR8; co-cultured fibroblast: WI38) [DSS]	drug sensitivity score (OVCAR8; [2]) [DSS]
O=C(c1ccc(C(=O)N2CCC(N3CCCC3)CC2)c(Nc2ccccc2)c1)N1CCC(N2CCCC2)CC1 [UNC1215]	0	0	0	0	0	0
CC/C(=C(\c1ccccc1)c1ccc(OCCN(C)C)cc1)c1ccccc1 [Tamoxifen]	1.3	1.3	0	3.3	0	1
Cc1ccc(-n2nc(C(C)(C)C)cc2NC(=O)Nc2ccc(OCCN3CCOCC3)c3ccccc23)cc1 [Doramapimod]	4.2	3.4	2.8	4.4	0.1	1.4
Cc1cc(Nc2cc(N3CCN(C)CC3)nc(Sc3ccc(NC(=O)C4CC4)cc3)n2)n[nH]1 [Tozasertib]	22	19.4	23.7	20.1	19.5	20.9
O=C(CCCCCCC(=O)Nc1ccc([C@H]2O[C@@H](CSc3nc(-c4ccccc4)c(-c4ccccc4)o3)C[C@@H](c3ccc(CO)cc3)O2)cc1)NO [Tubacin]	1.1	6.7	7	5	1.5	6.2
Cc1cc(Nc2ncnc3ccc(NC4=NC(C)(C)CO4)cc23)ccc1Oc1ccn2ncnc2c1 [Tucatinib]	2.9	0	2.5	0	0	0
CNCc1ccc(-c2[nH]c3cc(F)cc4c3c2CCNC4=O)cc1 [Rucaparib]	3.7	5.3	14.1	8.5	3.5	6.5
CO[C@H]1C[C@@H]2CC[C@@H](C)[C@@](O)(O2)C(=O)C(=O)N2CCCC[C@H]2C(=O)O[C@H]([C@H](C)C[C@@H]2CC[C@@H](OCCO)[C@H](OC)C2)CC(=O)[C@H](C)/C=C(\C)[C@@H](O)[C@@H](OC)C(=O)[C@H](C)C[C@H](C)/C=C/C=C/C=C/1C [Everolimus]	5.6	5.6	0	8.4	0	2.2
O=C(Nc1cnn2ccc(N3CCC[C@@H]3c3cc(F)ccc3F)nc12)N1CC[C@H](O)C1 [Larotrectinib]	0	0	0	0.2	1.6	0
CCOCc1nc2c(N)nc3ccccc3c2n1CC(C)(C)O [Resiquimod]	0	0	6.7	0.3	0	0
CCC(C)n1ncn(-c2ccc(N3CCN(c4ccc(OCC5COC(Cn6cncn6)(c6ccc(Cl)cc6Cl)O5)cc4)CC3)cc2)c1=O (stereo not given) [Itraconazole]	0	0	0	1	11.5	0.1
Clc1ccccc1C(c1ccccc1)(c1ccccc1)n1cccn1 [TRAM-34]	0	0	0	0	0	0
N#Cc1ccnc(N2C(=O)CC[C@H]2C(=O)N(c2cncc(F)c2)[C@H](C(=O)NC2CC(F)(F)C2)c2ccccc2Cl)c1 [Ivosidenib]	0	0	0	2.1	0.3	0.2
O=C(O)C(=O)O.[NH-][C@@H]1CCCC[C@H]1[NH-].[Pt+2] [Oxaliplatin]	9.3	16	18.1	13.9	19.6	18.2
CC[C@H](Nc1ncnc2[nH]cnc12)c1nc2cccc(F)c2c(=O)n1-c1ccccc1 [Idelalisib]	10.9	5.5	3.9	2.9	0	0.3
CNC(=O)c1cc(Oc2ccc(NC(=O)Nc3ccc(Cl)c(C(F)(F)F)c3)c(F)c2)ccn1 [Regorafenib]	5.5	3.6	3.2	5.4	3.3	5.5
CCN(CC)Cc1ccc2cc(COC(=O)Nc3ccc(C(=O)NO)cc3)ccc2c1 [Givinostat]	8.6	7.4	6.1	14.9	8.5	8.8
CN(C)C(=O)c1ccc(S(=O)(=O)c2ccc(NC(=O)[C@@](C)(O)C(F)(F)F)c(Cl)c2)cc1 [AZD7545]	0.4	0	0	3.4	0	0.7
O=C(Nc1cccc(NC(=O)c2cccc(O)c2O)c1)c1cccc(O)c1O [MST-312]	12	9.8	15.1	10.9	15.4	18.1
CCS(=O)(=O)N1CC(CC#N)(n2cc(-c3ncnc4[nH]ccc34)cn2)C1 [Baricitinib]	0	0	0	0	1.1	0
CC[C@H](NC(=O)[C@H](C)NC)C(=O)N1C[C@@H](O)C[C@H]1Cc1c(-c2[nH]c3cc(F)ccc3c2C[C@@H]2C[C@H](O)CN2C(=O)[C@H](CC)NC(=O)[C@H](C)NC)[nH]c2cc(F)ccc12 [Birinapant]	3.3	0	3.7	15.9	12.9	5.4
CC1CCC(n2c3cnccc3c3cnc(Nc4ccc5c(n4)CCN(C(=O)CO)C5)nc32)CC1 (stereo not given) [AMG-925]	0	2.2	0	0	0	0
CCN1CCN(Cc2ccc(Nc3ncc(F)c(-c4cc(F)c5nc(C)n(C(C)C)c5c4)n3)nc2)CC1 [Abemaciclib]	5.5	7.8	0.2	9.4	0	2.4
O=C(/C=C\n1cnc(-c2cc(C(F)(F)F)cc(C(F)(F)F)c2)n1)NNc1ccccn1 [Verdinexor]	8.4	9.1	16.7	10.2	7.1	16.6
C=CC(=O)Nc1cccc(Nc2nc(Nc3ccc(N4CCN(C(C)=O)CC4)cc3OC)ncc2C(F)(F)F)c1 [Rociletinib]	5.8	4.6	3.7	6.7	4.1	8.1

SMILES	drug sensitivity score (KURAMOCHI; [1]) [DSS]	drug sensitivity score (KURAMOCHI; co-cultured fibroblast: WI38) [DSS]	drug sensitivity score (KURAMOCHI; [2]) [DSS]	drug sensitivity score (OVCAR8; [1]) [DSS]	drug sensitivity score (OVCAR8; co-cultured fibroblast: WI38) [DSS]	drug sensitivity score (OVCAR8; [2]) [DSS]
CC(C)Oc1ccc(-c2nn([C@@H](C)c3oc4ccc(F)cc4c(=O)c3-c3cccc(F)c3)c3ncnc(N)c23)cc1F [TGR-1202]	0	0	0	0	0	0
CN1CCN(C2CCC(n3cc(-c4ccc(Oc5ccccc5)cc4)c4c(N)ncnc43)CC2)CC1 (stereo not given)	19.5	17.8	20.5	12.9	11.4	18.6
O=C1CN2Cc3c(ccc(Cl)c3Cl)N=C2N1 [Anagrelide]	0	0	0	0	11.9	0
N#CCNC(=O)c1ccc(-c2ccnc(Nc3ccc(N4CCOCC4)cc3)n2)cc1 [Momelotinib]	7.5	10.1	7.6	11.3	10.9	10.1
C[C@H]1C[C@@H]2[C@H]([C@@H](O)C[C@@]3(C)[C@H]2CC[C@]3(O)C(=O)CO)[C@@]2(C)C=CC(=O)C=C12 [Methylprednisolone]	0	0	9.8	0	0	8.1
CC(C)c1cc(C(=O)N2Cc3ccc(CN4CCN(C)CC4)cc3C2)c(O)cc1O [Onalespib]	13	14.6	14.9	17.4	18.5	23.5
Cc1cc(C(C)Nc2ccccc2)c2nc(N3CCOCC3)cc(=O)n2c1 (stereo not given) [TGX-221]	7.7	0	4	8.5	7.2	0
CCCOc1ccn2c(C(C)=O)cc(-c3ccccc3S(C)(=O)=O)c2c1 [GSK2801]	0	0	0.9	0	0	0
C[C@@H](Oc1cc(-n2cnc3ccc(CN4CCN(C)CC4)cc32)sc1C(N)=O)c1ccccc1C(F)(F)F	28	27.7	25.3	42.4	32.3	31
CNC(=O)c1ccc(N2C(=S)N(c3cnc(C#N)c(C(F)(F)F)c3)C(=O)C23CCC3)cc1F [Apalutamide]	0	0	0	0	0	0
CCOc1ccn(-c2ccc(F)cc2)c(=O)c1C(=O)Nc1ccc(Oc2ccnc(N)c2Cl)c(F)c1	0.6	0	0	0	0	0
COc1cc2c(Nc3ccc(Cl)c(Cl)c3F)ncnc2cc1OC[C@@H]1C[C@@H]2CN(C)C[C@@H]2C1 [Tesevatinib]	5	1.4	11.7	3.3	0.4	3.4
CC(C)c1cc(-c2n[nH]c(=O)n2-c2ccc3c(ccn3C)c2)c(O)cc1O [Ganetespib]	14.8	17.1	21	22.3	22.9	27.1
Nc1cc(C(F)(F)F)c(-c2cc(N3CCOCC3)nc(N3CCOCC3)n2)cn1 [Buparlisib]	9.1	8	7.9	6.9	3.4	9.3
COc1cc2nccc(Oc3ccc(NC(=O)Nc4cc(C)on4)c(Cl)c3)c2cc1OC [Tivozanib]	5.7	3.8	0.4	2.8	8.9	4.9
O[C@H](C[C@H]1c2c(F)cccc2-c2cncn21)[C@H]1CC[C@H](O)CC1 [GDC-0919]	1.3	0	0	0	0	1.6
CCn1c(-c2nonc2N)nc2cnc(Oc3cccc(NC(=O)c4ccc(OCCN5CCOCC5)cc4)c3)cc21	4.2	5.2	4.2	10.9	31.2	18.4
CN(C)C(=N)NC(=N)N [Metformin]	0	0	0	0	0	0
COC[C@H](NC(=O)c1cnc(C)s1)C(=O)N[C@@H](COC)C(=O)N[C@@H](Cc1ccccc1)C(=O)[C@@]1(C)CO1 [Oprozomib]	15.7	15.1	12.6	17.7	12.7	10.8
C=C(c1ccc(C(=O)O)cc1)c1cc2c(cc1C)C(C)(C)CCC2(C)C [Bexarotene]	0.4	0	15.5	0	0	0
CO[C@H]1C[C@@H]2CC[C@@H](C)[C@@](O)(O2)C(=O)C(=O)N2CCCC[C@H]2C(=O)O[C@H]([C@H](C)C[C@@H]2CC[C@@H](O)[C@H](OC)C2)CC(=O)[C@H](C)/C=C(\C)[C@@H](O)[C@@H](OC)C(=O)[C@H](C)C[C@H](C)/C=C/C=C/C=C/1C [Sirolimus]	4.2	5	7.1	4.5	0	9.2
Nc1nc2[nH]cnc2c(=S)[nH]1 [Thioguanine]	5.3	5.7	7.7	4.8	7.3	13.6
C[C@H]1CN(C2COC2)CCN1c1ccc(Nc2cc(-c3ccnc(N4CCn5c(cc6c5CC(C)(C)C6)C4=O)c3CO)cn(C)c2=O)nc1 [GDC-0853]	0	0	0	0	2.3	0
CC1(C)CCC(CN2CCN(c3ccc(C(=O)NS(=O)(=O)c4ccc(NCC5CCOCC5)c([N+](=O)[O-])c4)c(Oc4cnc5[nH]ccc5c4)c3)CC2)=C(c2ccc(Cl)cc2)C1 [Venetoclax]	0	0	0	0	0	2.3
CCCCNc1ncc(C(=O)NCc2ccc(-n3ccnc3)cc2)c(NC2CCC(O)CC2)n1 (stereo not given) [UNC2881]	2.4	3	0.4	0.2	1.1	0
